Test results published in paper PMC11593696, “Discovery of Potent Benzothiazole Inhibitors of Oxidoreductase NQO2, a Target for Inflammation and Cancer” (International Journal of Molecular Sciences, 2024).
Like-named read-outs stand apart in the source and are kept apart here.

How the values were obtained:
recombinant human NQO2 = molecular target: T1, recombinant human NQO2 (Homo sapiens, UniProt P16083); test: NQO2 enzyme inhibition assay (DCPIP substrate, NRH or EPR co-substrate); format: biochemical
T1 sequence (P16083 1-231): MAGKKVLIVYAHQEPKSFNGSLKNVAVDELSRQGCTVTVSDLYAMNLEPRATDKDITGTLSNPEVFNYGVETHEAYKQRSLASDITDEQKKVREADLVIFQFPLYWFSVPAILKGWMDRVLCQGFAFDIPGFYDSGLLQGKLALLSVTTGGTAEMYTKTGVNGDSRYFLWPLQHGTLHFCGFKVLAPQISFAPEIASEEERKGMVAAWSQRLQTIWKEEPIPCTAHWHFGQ
Experimental: In this assay, dichlorophenolindophenol (DCPIP) was used as a substrate for NQO2. NRH (SI or EP0152R) was used as the co-substrate for the enzyme.
The NQO2 enzyme assay was carried out using a […] GO spectrophotometer by measuring the absorbance of DCPIP at 600 nm. NRH [31] or EPR were used as co-substrates. The experiment was performed using a 96-well plate with a […] final volume using phosphate buffer (50 mM, pH 7.4). The final concentrations were DCPIP 40 µM and NRH or EPR 200 µM. The final enzyme concentration was 100 ng. The assay was performed at 37 °C and initiated through the addition of NQO2. The initial rates of the enzyme reactions were calculated from the curve by taking the initial slopes of the reactions using the formula (ΔAb/ΔTime). The assay of inhibitors was carried out using the same assay conditions. […] Each experiment was performed in triplicate. Rates were converted to the percentage of enzyme activity, and IC50 values were calculated using GraphPad Prism 7.03 software using the non-linear regression function. IC50 values were determined as a 50% decrease in NQO2 activity.

[1] = DCPIP substrate, NRH co-substrate, read-out: IC50 for inhibition of NQO2
[2] = inhibition of NQO2, DCPIP 40 µM, NRH or EPR 200 µM, phosphate buffer pH 7.4, 37 °C, triplicate, read-out: IC50 (µM) ± SD

Row | Structure (SMILES) | melting point | IC50 (recombinant human NQO2; [1]) | IC50 (recombinant human NQO2; [2]) | inhibition of NQO2 enzymatic activity, in words (recombinant human NQO2) | reduction in potency relative to compound 40 (recombinant human NQO2; removal of the 4-OMe or the 5-OMe from 40)
1 | COc1cc(-c2nc3ccc(NC(C)=O)cc3s2)cc(OC)c1OC [Compound 49, N-(2-(3,4,5-Trimethoxyphenyl)benzo[d]thiazol-6-yl)acetamide] | 208 to 209 °C | 0.031 µM | 0.031 ± 0.008 µM | – | –
2 | COc1cc(-c2nc3ccc([N+](=O)[O-])cc3s2)cc(OC)c1OC [Compound 47, 6-Nitro-2-(3,4,5-trimethoxyphenyl)benzo[d]thiazole] | 200 to 201 °C | – | 0.754 ± 0.008 µM | – | –
3 | COc1ccc(-c2nc3ccc(C(F)(F)F)cc3s2)c(OC)c1 [Compound 18, 2-(2,4-Dimethoxyphenyl)-6-(trifluoromethyl)benzo[d]thiazole] | – | – | 4.52 ± 0.04 µM | – | –
4 | COc1cc(-c2nc3ccc(Cl)cc3s2)cc(OC)c1OC [Compound 43, 6-Chloro-2-(3,4,5-trimethoxyphenyl)benzo[d]thiazole] | 173 to 174 °C | – | 0.773 ± 0.016 µM | – | –
5 | COc1cc(-c2nc3ccc(C(F)(F)F)cc3s2)cc(OC)c1OC [Compound 42, 6-(Trifluoromethyl)-2-(3,4,5-trimethoxyphenyl)benzo[d]thiazole] | – | 18.4 µM | 18.36 ± 0.03 µM | – | –
6 | COc1cc(-c2nc3ccc(I)cc3s2)cc(OC)c1OC [Compound 46, 6-Iodo-2-(3,4,5-trimethoxyphenyl)benzo[d]thiazole] | – | – | 0.106 ± 0.004 µM | – | –
7 | COc1ccc(OC)c(-c2nc3ccc(C(F)(F)F)cc3s2)c1 [Compound 26, 2-(2,5-Dimethoxyphenyl)-6-(trifluoromethyl)benzo[d]thiazole] | – | 2.77 µM | 2.77 ± 0.01 µM | – | –
8 | COc1cc(OC)cc(-c2nc3ccc(N)cc3s2)c1 [Compound 11, 2-(3,5-Dimethoxyphenyl)benzo[d]thiazol-6-amine] | – | 0.863 µM | 0.863 ± 0.07 µM | – | –
9 | COc1ccc(-c2nc3ccc(C#N)cc3s2)cc1OC [Compound 36, 2-(3,4-Dimethoxyphenyl)benzo[d]thiazole-6-carbonitrile] | – | – | > 100 µM | – | –
10 | COc1ccc(-c2nc3ccc(Br)cc3s2)c(OC)c1 [Compound 17, 6-Bromo-2-(2,4-dimethoxyphenyl)benzo[d]thiazole] | 148 to 149 °C | 56.9 µM | 56.9 ± 0.02 µM | – | –
11 | COc1cc(-c2nc3ccc(NC(=O)c4ccccc4)cc3s2)cc(OC)c1OC [Compound 50, N-(2-(3,4,5-Trimethoxyphenyl)benzo[d]thiazol-6-yl)benzamide] | 205 to 207 °C | 3.17 µM | 3.17 ± 0.031 µM | – | –
12 | Oc1ccc2nc(-c3cc(O)c(O)c(O)c3)sc2c1 [Compound 52, 6-Hydroxy-2-(3,4,5-trihydroxyphenyl)benzo[d]thiazole] | 240 to 242 °C | – | 0.2 ± 0.01 µM | – | –
13 | COc1cc(OC)cc(-c2nc3ccc(C(F)(F)F)cc3s2)c1 [Compound 5, 2-(3,5-Dimethoxyphenyl)-6-(trifluoromethyl)benzo[d]thiazole] | – | 0.123 µM | 0.123 ± 0.029 µM | – | –
14 | COc1ccc(OC)c(-c2nc3ccc(OC)cc3s2)c1 [Compound 24, 2-(2,5-Dimethoxyphenyl)-6-methoxybenzo[d]thiazole] | – | 0.846 µM | 0.846 ± 0.02 µM | – | –
15 | COc1cc(OC)cc(-c2nc3ccc(I)cc3s2)c1 [Compound 9, 2-(3,5-Dimethoxyphenyl)-6-iodobenzo[d]thiazole] | 150 to 152 °C | – | 2.46 ± 0.01 µM | – | –
16 | COc1cc(OC)cc(-c2nc3ccc(C#N)cc3s2)c1 [Compound 7, 2-(3,5-Dimethoxyphenyl)benzo[d]thiazole-6-carbonitrile] | 222 to 224 °C | – | > 100 µM | – | –
17 | COc1cc(OC)cc(-c2nc3ccc([N+](=O)[O-])cc3s2)c1 [Compound 10, 2-(3,5-Dimethoxyphenyl)-6-nitrobenzo[d]thiazole] | 199 to 200 °C | – | 93.44 ± 0.02 µM | – | –
18 | COc1cc(OC)cc(-c2nc3ccc(NC(C)=O)cc3s2)c1 [Compound 12, N-(2-(3,5-Dimethoxyphenyl)benzo[d]thiazol-6-yl)acetamide] | 179 to 181 °C | 0.605 µM | 0.605 ± 0.06 µM | – | –
19 | COc1cc(OC)cc(-c2nc3ccc(NC(=O)c4ccccc4)cc3s2)c1 [Compound 13, N-(2-(3,5-Dimethoxyphenyl)benzo[d]thiazol-6-yl)benzamide] | 138 to 140 °C | – | 8.44 ± 0.03 µM | further loss of activity | –
20 | COc1ccc(-c2nc3ccc(Cl)cc3s2)c(OC)c1 [Compound 19, 6-Chloro-2-(2,4-dimethoxyphenyl)benzo[d]thiazole] | 170 to 171 °C | 33.5 µM | 33.55 ± 0.02 µM | – | –
21 | COc1ccc(-c2nc3ccc([N+](=O)[O-])cc3s2)cc1OC [Compound 39, 2-(3,4-Dimethoxyphenyl)-6-nitrobenzo[d]thiazole] | 221 to 222 °C | – | 63.28 ± 0.02 µM | – | –
22 | COc1cc(OC)cc(-c2nc3ccc(Cl)cc3s2)c1 [Compound 6, 6-Chloro-2-(3,5-dimethoxyphenyl)benzo[d]thiazole] | 150 to 151 °C | – | 82.93 ± 0.04 µM | – | –
23 | COc1cc(-c2nc3ccc(C#N)cc3s2)cc(OC)c1OC [Compound 44, 2-(3,4,5-Trimethoxyphenyl)benzo[d]thiazole-6-carbonitrile] | 228 to 230 °C | 13.3 µM | 13.28 ± 0.02 µM | – | –
24 | COc1ccc2nc(-c3ccc(OC)c(OC)c3)sc2c1 [Compound 32, 2-(3,4-Dimethoxyphenyl)-6-methoxybenzo[d]thiazole] | – | 1.27 µM | 1.27 ± 0.03 µM | – | 20 fold
25 | Oc1cc(O)cc(-c2nc3ccc(O)cc3s2)c1 [Compound 15, 6-Hydroxy-2-(3,5-dihydroxyphenyl)benzo[d]thiazole] | – | 0.025 µM | 0.025 ± 0.003 µM | – | –
26 | COc1ccc2nc(-c3cc(OC)c(OC)c(OC)c3)sc2c1 [Compound 40, 6-Methoxy-2-(3,4,5-trimethoxyphenyl)benzo[d]thiazole] | – | 0.051 µM | 0.051 ± 0.02 µM | – | –

Next, values leading:

Row | melting point | IC50 (recombinant human NQO2; [1]) | IC50 (recombinant human NQO2; [2]) | inhibition of NQO2 enzymatic activity, in words (recombinant human NQO2) | reduction in potency relative to compound 40 (recombinant human NQO2; removal of the 4-OMe or the 5-OMe from 40) | Structure (SMILES)
27 | – | 91.7 µM | 91.67 ± 0.08 µM | – | – | COc1ccc(-c2nc3ccc(Cl)cc3s2)cc1OC [Compound 35, 6-Chloro-2-(3,4-dimethoxyphenyl)benzo[d]thiazole]
28 | 157 to 158 °C | – | 3.51 ± 0.08 µM | – | – | COc1ccc(-c2nc3ccc(F)cc3s2)c(OC)c1 [Compound 21, 2-(2,4-Dimethoxyphenyl)-6-fluorobenzo[d]thiazole]
29 | – | 5.93 µM | 5.93 ± 0.05 µM | – | – | COc1ccc(-c2nc3ccc(F)cc3s2)cc1OC [Compound 37, 2-(3,4-Dimethoxyphenyl)-6-fluorobenzo[d]thiazole]
30 | 127 to 130 °C | > 100 µM | > 100 µM | – | – | COc1ccc(-c2nc3ccc(F)cc3s2)cc1 [Compound 54, 6-Fluoro-2-(4-methoxyphenyl)benzo[d]thiazole]
31 | 138 to 140 °C | – | > 100 µM | – | – | COc1cc(OC)cc(-c2nc3ccc(F)cc3s2)c1 [Compound 8, 2-(3,5-Dimethoxyphenyl)-6-fluorobenzo[d]thiazole]
32 | – | 22.9 µM | 22.94 ± 0.02 µM | – | – | COc1ccc(-c2nc3ccc(I)cc3s2)cc1OC [Compound 38, 2-(3,4-Dimethoxyphenyl)-6-iodobenzo[d]thiazole]
33 | 103 to 105 °C | 0.908 µM | 0.908 ± 0.02 µM | – | – | COc1cccc(-c2nc3ccc(F)cc3s2)c1 [Compound 53, 6-Fluoro-2-(3-methoxyphenyl)benzo[d]thiazole]
34 | 165 to 168 °C | 9.09 µM | 9.09 ± 0.04 µM | – | – | COc1ccc(-c2nc3ccc(Br)cc3s2)cc1OC [Compound 33, 6-Bromo-2-(3,4-dimethoxyphenyl)benzo[d]thiazole]
35 | 111 to 112 °C | 52.6 µM | 52.55 ± 0.06 µM | – | – | Fc1cccc(-c2nc3ccc(F)cc3s2)c1 [Compound 55, 6-Fluoro-2-(3-fluorophenyl)benzo[d]thiazole]
36 | 105 to 107 °C | 2.06 µM | 2.06 ± 0.01 µM | – | – | COc1ccc(OC)c(-c2nc3ccc(F)cc3s2)c1 [Compound 29, 2-(2,5-Dimethoxyphenyl)-6-fluorobenzo[d]thiazole]
37 | – | > 100 µM | > 100 µM | – | – | Fc1ccc(-c2nc3ccc(F)cc3s2)cc1 [Compound 56, 6-Fluoro-2-(4-fluorophenyl)benzo[d]thiazole]
38 | – | 12 µM | 11.78 ± 0.02 µM | – | – | COc1ccc2nc(-c3cc(F)cc(F)c3)sc2c1 [Compound 57, 2-(3,5-Difluorophenyl)-6-methoxybenzo[d]thiazole]
39 | – | – | > 100 µM | loss of inhibition of NQO2 activity | – | Fc1cc(F)cc(-c2nc3ccc(F)cc3s2)c1 [Compound 58, 2-(3,5-Difluorophenyl)-6-fluorobenzo[d]thiazole]
40 | – | – | > 100 µM | – | – | COc1ccc(-c2nc3ccc(C(F)(F)F)cc3s2)cc1OC [Compound 34, 2-(3,4-Dimethoxyphenyl)-6-(trifluoromethyl)benzo[d]thiazole]
